EC50 data for 25 compounds are collected here from patent US8399681B2, “Substituted aminothiazolone indazoles as estrogen related receptor-alpha modulators” (Janssen Pharmaceutica NV, priority 2009, dated 2013).

As usually defined, the EC50 is the midpoint of the concentration-response curve. The low end stands for greater potency, the high end for weaker potency.

The experiment has as its target T1, ERR1 (also known as ERR-α or ERR-1) (Homo sapiens, UniProt P11474).
T1 sequence (P11474 193-421 limits assumed): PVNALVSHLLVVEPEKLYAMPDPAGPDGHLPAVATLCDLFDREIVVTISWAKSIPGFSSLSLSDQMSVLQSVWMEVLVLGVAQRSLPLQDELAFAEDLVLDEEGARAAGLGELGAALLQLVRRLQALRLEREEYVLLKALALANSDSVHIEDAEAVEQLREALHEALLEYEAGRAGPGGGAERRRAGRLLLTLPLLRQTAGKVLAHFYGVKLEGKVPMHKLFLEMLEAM
Put plainly: TR-FRET assay (disruption of co-activator peptide binding). In kind it is biochemical. To be noted: 6His-tagged ERR1 LBD, GST-hSRC2 co-activator polypeptide; average of 3 independent experiments. Summed up:
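His6-ERR1 LBD (6 nM) with GST-SRC-2 peptide (6 nM), anti-GST Eu cryptate (30 nM) and anti-His XL665 (7.5 nM) in Tris pH 8/KCl/DTT/BSA buffer, equilibrated 4-18 h at 25 °C. Ex 340, em 615/665 nm; hyperbolic dose-response fit, mean of 3 experiments.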
For orientation: Time-resolved FRET reads energy transfer from a long-lived donor to a nearby acceptor.

As for `CN1CCN(C2=NC(=O)/C(=C/c3ccc4c(cnn4Cc4ccc(Cl)cc4C(F)(F)F)c3)S2)[C@@H](CO)C1` [Example 254, 5-({1-[4-Chloro-2-(trifluoromethyl)benzyl]-1H-indazol-5-yl}methylidene)-2-[(2R)-2-(hydroxymethyl)-4-methylpiperazin-1-yl]-1,3-thiazol-4(5H)-one], the concentration giving a half-maximal response (EC50) is 6.5 nM. As to `CC[C@H]1CNCCN1C1=NC(=O)/C(=C/c2ccc3c(cnn3Cc3ccc(Cl)cc3C(F)(F)F)c2)S1` [Example 255], a half-maximal response (EC50) required 28 nM. `CC[C@H]1CN(C)CCN1C1=NC(=O)/C(=C/c2ccc3c(cnn3Cc3ccc(Cl)cc3C(F)(F)F)c2)S1` [Example 256, 5-({1-[4-Chloro-2-(trifluoromethyl)benzyl]-1H-indazol-5-yl}methylidene)-2-((2S)-2-ethyl-4-methylpiperazin-1-yl)-1,3-thiazol-4(5H)-one] gave a 50% effective concentration (EC50) of 49 nM. `N[C@@H]1C[C@H](CO)N(C2=NC(=O)/C(=C/c3ccc4c(cnn4Cc4ccc(Cl)cc4C(F)(F)F)c3)S2)C1` [Example 257, 2-[(2R,4R)-4-Amino-2-(hydroxymethyl)pyrrolidin-1-yl]-5-({1-[4-chloro-2-(trifluoromethyl)benzyl]-1H-indazol-5-yl}methylidene)-1,3-thiazol-4(5H)-one] had an EC50 of 96 nM.

The compound `N[C@@H]1C[C@H](CO)N(C2=NC(=O)/C(=C/c3ccc4c(cnn4Cc4ccc(C(F)(F)F)cc4C(F)(F)F)c3)S2)C1` [Example 258, 2-[(2R,4R)-4-Amino-2-(hydroxymethyl)pyrrolidin-1-yl]-5-({1-[2,4-bis(trifluoromethyl)benzyl]-1H-indazol-5-yl}methylidene)-1,3-thiazol-4(5H)-one] had a half-maximal effective concentration (EC50) of 30 nM. Next, `CC(=O)N[C@@H]1C[C@H](CO)N(C2=NC(=O)/C(=C/c3ccc4c(cnn4Cc4ccc(C(F)(F)F)cc4C(F)(F)F)c3)S2)C1` [Example 259, N-{1-[(3R,5R)-5-({1-[2,4-Bis(trifluoromethyl)benzyl]-1H-indazol-5-yl}methylidene)-4-oxo-4,5-dihydro-1,3-thiazol-2-yl]-5-(hydroxymethyl)pyrrolidin-3-yl}acetamide]: 30 nM. Next, `O=C1N=C(N2C[C@H](NC(=O)C3CC3)C[C@@H]2CO)S/C1=C\c1ccc2c(cnn2Cc2ccc(C(F)(F)F)cc2C(F)(F)F)c1` [Example 260, N-{(3R,5R)-1-[5-({1-[2,4-Bis(trifluoromethyl)benzyl]-1H-indazol-5-yl}methylidene)-4-oxo-4,5-dihydro-1,3-thiazol-2-yl]-5-(hydroxymethyl)pyrrolidin-3-yl}cyclopropanecarboxamide]: 290 nM.

On to `CC(=O)N[C@@H]1C[C@H](CO)N(C2=NC(=O)/C(=C/c3ccc4c(cnn4Cc4ccc(Cl)cc4C(F)(F)F)c3)S2)C1` [Example 261, N-{(3R,5R)-1-[5-({1-[4-Chloro-2-(trifluoromethyl)benzyl]-1H-indazol-5-yl}methylidene)-4-oxo-4,5-dihydro-1,3-thiazol-2-yl]-5-(hydroxymethyl)pyrrolidin-3-yl}acetamide], for which the EC50 was found to be 20 nM. Next, `CC(C)N[C@@H]1C[C@H](CO)N(C2=NC(=O)/C(=C/c3ccc4c(cnn4Cc4ccc(C(F)(F)F)cc4C(F)(F)F)c3)S2)C1` [Example 262]: 64 nM; `CC(C)N[C@@H]1C[C@H](CO)N(C2=NC(=O)/C(=C/c3ccc4c(cnn4Cc4ccc(Cl)cc4C(F)(F)F)c3)S2)C1` [Example 263]: 42 nM; `CC(N[C@H]1CCN(C2=NC(=O)/C(=C/c3ccc4c(cnn4Cc4ccc(C(F)(F)F)cc4C(F)(F)F)c3)S2)C1)C(N)=O` (stereo partly drawn) [Example 264, N-2-{(3S)-1-[5-({1-[2,4-Bis(trifluoromethyl)benzyl]-1H-indazol-5-yl}methylidene)-4-oxo-4,5-dihydro-1,3-thiazol-2-yl]pyrrolidin-3-yl}alaninamide]: 47 nM. Next, `CC(N[C@H]1CCN(C2=NC(=O)/C(=C/c3ccc4c(cnn4Cc4ccc(Cl)cc4C(F)(F)F)c3)S2)C1)C(N)=O` (stereo partly drawn) [Example 265, N-2-{(3S)-1-[5-({1-[4-Chloro-2-(trifluoromethyl)benzyl]-1H-indazol-5-yl}methylidene)-4-oxo-4,5-dihydro-1,3-thiazol-2-yl]pyrrolidin-3-yl}alaninamide]: 38 nM; `O=C1N=C(N2CCC[C@H](NCC(F)F)C2)S/C1=C\c1ccc2c(cnn2Cc2ccc(C(F)(F)F)cc2C(F)(F)F)c1` [Example 266, 5-({1-[2,4-Bis(trifluoromethyl)benzyl]-1H-indazol-5-yl}methylidene)-2-{(3S)-3-[(2,2-difluoroethyl)amino]piperidin-1-yl}-1,3-thiazol-4(5H)-one]: 24 nM. Take `O=C1N=C(N2CCCC(NCCO)C2)S/C1=C\c1ccc2c(cnn2Cc2ccc(C(F)(F)F)cc2C(F)(F)F)c1` (stereo not shown) [Example 267, 5-({1-[2,4-Bis(trifluoromethyl)benzyl]-1H-indazol-5-yl}methylidene)-2-{3-[(2-hydroxyethyl)amino]piperidin-1-yl}-1,3-thiazol-4(5H)-one]: a half-maximal response (EC50) required 43 nM. The value for `O=C1N=C(N2CCC(O)(C(=O)O)CC2)S/C1=C\c1ccc2c(cnn2Cc2ccc(Cl)cc2C(F)(F)F)c1` [Example 268, 1-[5-({1-[4-Chloro-2-(trifluoromethyl)benzyl]-1H-indazol-5-yl}methylidene)-4-oxo-4,5-dihydro-1,3-thiazol-2-yl]-4-hydroxypiperidine-4-carboxylic acid] was 15 nM; that for `O=C1N=C(N2CCC(O)(C(=O)O)CC2)S/C1=C\c1ccc2c(cnn2Cc2ccc(C(F)(F)F)cc2C(F)(F)F)c1` [Example 269, 1-[5-({1-[2,4-Bis(trifluoromethyl)benzyl]-1H-indazol-5-yl}methylidene)-4-oxo-4,5-dihydro-1,3-thiazol-2-yl]-4-hydroxypiperidine-4-carboxylic acid] was 15 nM. For `CNC1CN(C2=NC(=O)/C(=C/c3ccc4c(cnn4Cc4ccc(Cl)cc4C(F)(F)F)c3)S2)C1` [Example 270, 5-({1-[4-Chloro-2-(trifluoromethyl)benzyl]-1H-indazol-5-yl}methylidene)-2-[3-(methylamino)azetidin-1-yl]-1,3-thiazol-4(5H)-one], the EC50 came to 8 nM. The value for `CONC(=O)C1CN(C2=NC(=O)/C(=C/c3ccc4c(cnn4Cc4ccc(Cl)cc4C(F)(F)F)c3)S2)CCN1` (stereo not shown) [Example 271, 4-[5-({1-[4-Chloro-2-(trifluoromethyl)benzyl]-1H-indazol-5-yl}methylidene)-4-oxo-4,5-dihydro-1,3-thiazol-2-yl]-N-methoxypiperazine-2-carboxamide] was 9 nM; that for `CONC(=O)C1CN(C2=NC(=O)/C(=C/c3ccc4c(cnn4Cc4ccc(C(F)(F)F)cc4C(F)(F)F)c3)S2)CCN1` (stereo not shown) [Example 272, 4-[5-({1-[2,4-Bis(trifluoromethyl)benzyl]-1H-indazol-5-yl}methylidene)-4-oxo-4,5-dihydro-1,3-thiazol-2-yl]-N-methoxypiperazine-2-carboxamide] was 35 nM. Next, `NC(=O)C1CN(C2=NC(=O)/C(=C/c3ccc4c(cnn4Cc4ccc(Cl)cc4C(F)(F)F)c3)S2)CCN1` (stereo not shown) [Example 273, 4-[5-({1-[4-Chloro-2-(trifluoromethyl)benzyl]-1H-indazol-5-yl}methylidene)-4-oxo-4,5-dihydro-1,3-thiazol-2-yl]piperazine-2-carboxamide]: 6 nM; `NC(=O)C1CN(C2=NC(=O)/C(=C/c3ccc4c(cnn4Cc4ccc(C(F)(F)F)cc4C(F)(F)F)c3)S2)CCN1` (stereo not shown) [Example 274, 4-[5-({1-[2,4-Bis(trifluoromethyl)benzyl]-1H-indazol-5-yl}methylidene)-4-oxo-4,5-dihydro-1,3-thiazol-2-yl]piperazine-2-carboxamide]: 8 nM. Next, `C=C(C)c1ccc(Cn2ncc3cc(/C=C4\SC(N5CCO[C@@H](CO)C5)=NC4=O)ccc32)c(C(F)(F)F)c1` [Example 275, 2-[(2R)-2-(Hydroxymethyl)morpholin-4-yl]-5-({1-[4-(1-methylethenyl)-2-(trifluoromethyl)benzyl]-1H-indazol-5-yl}methylidene)-1,3-thiazol-4(5H)-one]: 11 nM; `Cc1nn(Cc2ccc(Cl)cc2C(F)(F)F)c2ccc(/C=C3\SC(N4CCC(C(=O)O)CC4)=NC3=O)cc12` [Example 276, 1-[5-({1-[4-Chloro-2-(trifluoromethyl)benzyl]-3-methyl-1H-indazol-5-yl}methylidene)-4-oxo-4,5-dihydro-1,3-thiazol-2-yl]piperidine-4-carboxylic acid]: 24 nM; `Cc1nn(Cc2ccc(Cl)cc2C(F)(F)F)c2ccc(/C=C3\SC(N4CCN[C@H](CO)C4)=NC3=O)cc12` [Example 277, 5-({1-[4-Chloro-2-(trifluoromethyl)benzyl]-3-methyl-1H-indazol-5-yl}methylidene)-2-[(3S)-3-(hydroxymethyl)piperazin-1-yl]-1,3-thiazol-4(5H)-one]: 9 nM. In the case of `Cc1nn(Cc2ccc(Cl)cc2C(F)(F)F)c2ccc(/C=C3\SC(N4CCN(C)C(C)(C)C4)=NC3=O)cc12` [Example 278, 5-({1-[4-Chloro-2-(trifluoromethyl)benzyl]-3-methyl-1H-indazol-5-yl}methylidene)-2-(3,3,4-trimethylpiperazin-1-yl)-1,3-thiazol-4(5H)-one], the EC50 is 17 nM.
